Laboratory results as given in patent US20060172943A1, “Restoring vascular function” (priority 2003, published 2006).
Ends that are not written are not given here.

Columns and labels:
[1] = biological target: T1, tenascin-C in the cardiac vasculature (Mus musculus, UniProt Q80YX1); assay: Immunostaining of heart sections for phage coat protein pIII and tenascin-C; type: in vivo; conditions: rodent heart after phage injection
T1 construct: from tissue; host or cells: heart (cardiac vasculature) of phage-injected animals, paraffin sections
T1 sequence (Q80YX1 23-2110): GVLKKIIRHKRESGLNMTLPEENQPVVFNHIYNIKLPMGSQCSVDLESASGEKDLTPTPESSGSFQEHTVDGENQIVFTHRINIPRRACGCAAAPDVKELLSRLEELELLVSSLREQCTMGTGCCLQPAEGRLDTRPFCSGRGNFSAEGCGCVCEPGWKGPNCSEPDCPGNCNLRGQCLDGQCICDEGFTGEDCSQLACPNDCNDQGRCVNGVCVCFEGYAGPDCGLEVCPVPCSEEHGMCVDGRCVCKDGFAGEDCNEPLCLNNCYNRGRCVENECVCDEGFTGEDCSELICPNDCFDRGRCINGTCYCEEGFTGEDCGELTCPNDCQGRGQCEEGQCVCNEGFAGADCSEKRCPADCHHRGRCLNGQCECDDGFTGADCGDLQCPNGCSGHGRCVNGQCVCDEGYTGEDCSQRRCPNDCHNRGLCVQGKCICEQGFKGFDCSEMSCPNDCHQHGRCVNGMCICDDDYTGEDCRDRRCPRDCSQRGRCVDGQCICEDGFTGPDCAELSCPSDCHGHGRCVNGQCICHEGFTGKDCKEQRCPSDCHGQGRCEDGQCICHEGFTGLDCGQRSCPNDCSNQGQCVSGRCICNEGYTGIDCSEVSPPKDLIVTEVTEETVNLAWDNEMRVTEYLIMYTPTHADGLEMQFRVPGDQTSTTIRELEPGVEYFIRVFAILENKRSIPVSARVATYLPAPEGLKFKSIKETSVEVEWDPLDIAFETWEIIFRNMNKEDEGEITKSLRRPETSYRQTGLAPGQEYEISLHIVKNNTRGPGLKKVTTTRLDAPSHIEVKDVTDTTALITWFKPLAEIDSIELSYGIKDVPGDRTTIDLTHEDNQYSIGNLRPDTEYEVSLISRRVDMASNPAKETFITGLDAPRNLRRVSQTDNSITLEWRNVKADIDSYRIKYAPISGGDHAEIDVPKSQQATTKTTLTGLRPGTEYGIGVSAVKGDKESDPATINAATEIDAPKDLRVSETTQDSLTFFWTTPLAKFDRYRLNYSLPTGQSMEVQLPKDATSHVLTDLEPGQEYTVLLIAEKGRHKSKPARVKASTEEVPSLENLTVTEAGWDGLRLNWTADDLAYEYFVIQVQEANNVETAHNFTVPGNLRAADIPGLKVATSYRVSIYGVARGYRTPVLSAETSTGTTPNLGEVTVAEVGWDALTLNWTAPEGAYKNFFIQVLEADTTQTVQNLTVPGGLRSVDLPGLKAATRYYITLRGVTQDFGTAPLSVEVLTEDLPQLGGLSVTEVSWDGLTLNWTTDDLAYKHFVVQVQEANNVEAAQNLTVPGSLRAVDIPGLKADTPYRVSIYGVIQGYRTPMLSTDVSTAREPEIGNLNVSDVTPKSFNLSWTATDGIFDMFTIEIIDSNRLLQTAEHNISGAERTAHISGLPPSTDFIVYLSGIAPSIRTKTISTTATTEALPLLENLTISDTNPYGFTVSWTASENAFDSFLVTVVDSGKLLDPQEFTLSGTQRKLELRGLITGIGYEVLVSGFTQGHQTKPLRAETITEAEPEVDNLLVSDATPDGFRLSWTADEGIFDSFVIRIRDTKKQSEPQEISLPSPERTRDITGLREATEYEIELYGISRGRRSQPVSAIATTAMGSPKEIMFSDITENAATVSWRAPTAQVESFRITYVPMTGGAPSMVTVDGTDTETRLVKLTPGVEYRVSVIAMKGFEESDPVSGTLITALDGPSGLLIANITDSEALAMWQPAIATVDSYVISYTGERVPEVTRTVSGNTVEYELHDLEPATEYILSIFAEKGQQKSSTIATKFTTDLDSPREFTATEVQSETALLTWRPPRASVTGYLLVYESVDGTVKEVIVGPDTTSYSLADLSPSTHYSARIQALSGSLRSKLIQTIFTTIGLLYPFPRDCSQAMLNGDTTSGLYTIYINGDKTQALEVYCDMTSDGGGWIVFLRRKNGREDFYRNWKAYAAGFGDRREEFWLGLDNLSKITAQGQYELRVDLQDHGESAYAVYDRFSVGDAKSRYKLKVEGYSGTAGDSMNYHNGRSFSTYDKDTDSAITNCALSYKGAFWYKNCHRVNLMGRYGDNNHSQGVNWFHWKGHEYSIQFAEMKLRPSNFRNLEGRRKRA
Text: For immunohistochemical analysis of phage binding, hearts were harvested after phage injection, and then prepared for paraffin embedding and sectioning using standard histochemical procedures.
(§1) The following primary antibodies were used for immunostaining histological sections: anti-tenascin-C (Santa Cruz Biotechnology, California), anti-pIII (Mobitec, Germany), anti-β-galactosidase (Biogenesis, U.K.), anti-PDGFRα (Santa Cruz Biotechnology). For consistency, sections for all analyses were selected from the mid-papillary region of the ventricles. Primary antibodies were labeled with biotin and visualized with Texas Red- and FITC-conjugated avidin (Vector Labs, California).
To investigate whether tenascin is an in vivo receptor for ψR3Y32, expression of tenascin-C as well as its relationship to phage binding sites was analyzed in the rodent heart. […] Co-staining for tenascin-C and the nuclear marker 4,6-diamidino-2-phenylindole (DAPI) further confirmed that tenascin-C is expressed on the luminal surface of cardiac vessels, and therefore may act at sites of endothelial cell/EPC cell incorporation during vascular remodeling (FIG. 3D).

[2] = tested on: cardiac vasculature of young (3-month-old) and old (18-month-old) murine hearts; assay: In vivo phage binding in heart after tail vein injection, quantified by phage titering; conditions: individual tail vein injection; 3-month-old vs 18-month-old mice; titers of phage eluted from hearts
Procedure: To identify young-specific bone marrow-homing phage, a phage library encoding a cyclically constrained seven amino acid variable region (New England Biolabs, Massachusetts) was injected into young (3 month) and old (18-month) adult mice, using methods described in Cai, D., et al., Age-associated impairment in TNF-alpha cardioprotection from myocardial infarction. Am J Physiol Heart Circ Physiol, 2003. 285(2): p. H463-69. Phage clones were selected for sequencing from phage pools eluted from young rather than old bone marrow. To confirm that these clones preferentially bound to young bone marrow, the clones were injected individually into young and old mice and young bone marrow-specific clones were re-selected from the young mouse's bone marrow. Young bone marrow-homing phage were then analyzed for cardiac binding to identify phage epitopes that preferentially bound to young cardiac vasculature as well as young bone marrow. The number of bound phage recovered per mg of tissue was quantified by serial dilution titration. The age-associated differential cardiac binding capacity of a candidate phage clone, ψR3Y32 was confirmed using methods described in Cai et al. (2004).
Individual injection of ψR3Y32 confirmed 10-fold higher levels of ψR3Y32 binding in young compared to old murine hearts (FIG. 3A).

[3] = tested on: tenascin-C mRNA expression in cultured rat cardiac endothelial cells; assay: PCR analysis of tenascin-C mRNA expression in cultured cardiac endothelial cells treated with PDGF; type: cell-based; conditions: data not shown
Procedure: Tenascin-C expression was induced by PDGF during in vitro studies in rat aortic smooth muscle cells. […] Control cells received no PDGF. Cardiac endothelial cells from young (4-month old) and old (24-month old) rat hearts were tested. The number of treated and non-treated cultures tested was two (n=2 per group). Tenascin-C expression was higher in PDGF-treated cells and in younger (4 month old) as opposed to older ([…]) cultures of rat cardiac endothelial cells.

[4] = tested on: tenascin-C expression in the heart; assay: Immunohistochemical analysis of heart sections after intramyocardial PDGF injection; type: in vivo, rat; conditions: rats, 24 h, immunohistochemistry, data not shown
Procedure: Cardiac injections of PDGF ligand were performed as described in Xaymardan et al., Senescent impairment in synergistic cytokine pathways that provide rapid cardioprotection in the rat heart. J Exp Med, 199(6): p. 797-804 (2004). Briefly, rats were anesthetized, an intercostal thoracotomy was performed and then the rats received intramyocardial injections of PDGF-AB (100 ng/50 μl PBS) at the anterior wall of the myocardium (two 25 μl injections, 2 mm apart) through a 28 gauge needle. The chest wall was closed, the lungs inflated and the rats were extubated. Twenty-four hours later, the rats were sacrificed and the hearts were harvested for paraffin embedding and sectioning, using standard techniques.
as §1

[5] = tested on: rat cardiac microvascular endothelial cells; assay: Three-dimensional migration assay through collagen gel; type: cell-based; conditions: cells cultured 3 h on substrate 10 μg/ml, 48 hours; for increase of peak migration distance in response to PDGF compared to absence of growth factors: PDGF 5 ng/ml; for increase of peak migration distance in response to VEGF compared to absence of growth factors: VEGF 5 ng/ml
Procedure: (§2) Rat cardiac microvascular endothelial cells were isolated from 3-month-old rats according to the method of Nishida et al. (1995). Cells were cultured on either collagen-coated or tenascin-C-coated (10 μg/ml) 8-well chamber slides (Nunc Nalge International, Illinois.) in minimal media (5% fetal bovine serum, 1% penicillin, 1% streptomycin in Dulbecco's modified Eagle's medium) for up to 48 hours and photographed daily. […] For migration analysis, cells were covered with 300 μl of collagen gel (Chemicon, California) after 3 h of culture on 10 μg/ml collagen or tenascin-C. The gel was allowed to polymerize for 1 hour at 37° C. and 200 μl of minimal media containing VEGF or PDGF (5 ng/ml) or no growth factor was added to the wells. Cells were incubated for up to 48 h, and analyzed for peak migration rates using an inverted microscope (Nikon, Japan): migratory distance of the 5 cells that had migrated furthest through the Z-axis of the gel was determined using the Z-plane focus knob of the microscope. Each experiment was repeated 4 times.
A three-dimensional assay system was developed in which cardiac endothelial cells were cultured on either collagen or tenascin-C for 3 h, and then migration through a collagen gel was analyzed in response to PDGF, VEGF, or the absence of angiogenic growth factors (FIGS. 8A, B). After 48 hours, peak migration distances through the Z-axis of the gel were determined (FIG. 8C).

[6] = tested on: rat cardiac microvascular endothelial cells; assay: In vitro cell adhesion and spreading analysis on coated substrates; type: cell-based; conditions: for cells that failed to attach to the substrate: within 10 min of plating
Procedure: as §2
The role of tenascin-C in the regulation of cardiac angiogenesis, endothelial cell phenotype and behavior was further analyzed by observing whether tenascin-C influenced cell adhesion. Cardiac endothelial cells were isolated from young hearts and cultured on either tenascin-C or collagen at a concentration of 10 μg/ml. […] Thus, it appeared that tenascin-C has a short-term anti-adhesive effect on cardiac endothelial cells. […] After 3 h of culture, 99% of cells were attached to the collagen substrate, while approximately 10% of cells on tenascin-C still fail to adhere in this time. Thus, tenascin-C can mediate endothelial cell attachment but, at least within the first few hours of endothelial cell binding to tenascin-C, this attachment is weak and cells maintain a rounded phenotype.
The time period and substrate concentration effects upon cell attachment were further examined by plating rat microvascular endothelial cells on various concentrations (1 μg/ml, 10 μg/ml and 100 μg/ml) of collagen and tenascin-C and observing the attachment of cells to these substrates. As shown in FIGS. 6A-C, within 3 hr, cells on collagen were well attached and beginning to spread into a monolayer. In contrast, cells plated on tenascin-C for 3 hr remained rounded, especially when higher concentrations of tenascin-C were used (FIGS. 6D-F).

[7] = 3 hours of incubation, substrate 10 μg/ml
[8] = after 3 h of culture, substrate 10 μg/ml

With “ψR3Y32: phage clone from in vivo biopanning displaying a cyclically constrained peptide with core motif STISHN (SEQ ID NO:1), homologous to alpha-8 integrin (also: displayed on phage, cyclically constrained; listed as Homo sapiens)” the “binding of phage to vessels within the heart (pIII immunostaining)” value [1] was “confirmed the binding of ψR3Y32 to vessels within the heart” and the “levels of phage binding in young compared to old murine hearts” value [2] was 10 fold.
For “PDGF-AB: platelet derived growth factor AB heterodimer ligand”, the “time of peak upregulation of tenascin-C mRNA” value ([3]; RT-PCR, cardiac endothelial cells cultured with exogenous PDGF ligand) was 6 h, the “tenascin-C mRNA expression in cardiac endothelial cells after treatment” value ([3]; real-time PCR, cultured rat cardiac endothelial cells, n=2 per group) was “increased” and the “tenascin-C expression in heart sections after treatment” value [4] was “increases tenascin-C expression”.
In the case of collagen [reference compound], the “increase of peak migration distance in response to PDGF compared to absence of growth factors” value [5] is reported as 51.4%, the “increase of peak migration distance in response to VEGF compared to absence of growth factors” value [5] is reported as 63.3% and the “cell attachment and morphology” value [6, 7] is reported as “attached well and were beginning to spread”. The “cells attached to the substrate” value [6, 8] was 99% and the “cells that failed to attach to the substrate” value ([6]; substrate 10 μg/ml) was 16.9%.
In the case of “tenascin-C: hexameric extracellular matrix glycoprotein, used as coating substrate for cardiac endothelial cells”, the “increase of peak migration distance in response to PDGF compared to absence of growth factors” value [5] is reported as 64.3%, the “increase of peak migration distance in response to VEGF compared to absence of growth factors” value [5] is reported as 91.6% and the “cell attachment and morphology” value [6, 7] is reported as “rounded and poorly attached”. The “cell attachment and morphology” value ([6]; 24 hours of culture, substrate 10 μg/ml) was “well attached and spread and formed a typical endothelial monolayer”, the “cell attachment and morphology” value ([6]; 24 hr, substrate 100 μg/ml) was “formed multi-layered cell clusters” and the “cells that fail to adhere” value [6, 8] was “approximately 10%”. The “cells that failed to attach to the substrate” value ([6]; substrate 10 μg/ml) was 86.9%.
